Assay results reported in PubChem BioAssay (NCI).
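Tested at 5 concentrations; 48 h exposure; 96-well plates; endpoints linearly interpolated, else capped at highest concentration. The concentration for 50% growth inhibition is given as GI50. At the TGI there is no net growth.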

Assays:
Experiment in all cases: NCI tumour cell line growth inhibition, 48 h
[1] = system: ACHN renal
[2] = system: HCC-2998 colon
[3] = system: SF-295 CNS
[4] = system: KM12 colon
[5] = system: OVCAR-4 ovarian
[6] = system: SF-539 CNS
[7] = system: RXF 393 renal
[8] = system: TK-10 renal
[9] = system: A498 renal
[10] = system: IGROV1 ovarian
[11] = system: HOP-62 NSCLC
[12] = system: MDA-MB-231 breast
[13] = system: SNB-75 CNS
[14] = system: NCI-H522 lung
[15] = system: NCI/ADR-RES ovarian
[16] = system: K-562 leukemia
[17] = system: COLO 205 colon
[18] = system: HCT-116 colon
[19] = system: UACC-62 melanoma
[20] = system: HL-60(TB) leukemia
[21] = system: A549 NSCLC
[22] = system: DU-145 prostate
[23] = system: NCI-H460 lung
[24] = system: MDA-MB-435
[25] = system: BT-549 breast
[26] = system: UACC-257 melanoma
[27] = system: HS 578T breast
[28] = system: T-47D breast
[29] = system: SK-MEL-2 melanoma
[30] = system: SNB-19 CNS
[31] = system: MCF7 breast
[32] = system: SN12C renal
[33] = system: MOLT-4 leukemia
[34] = system: PC-3 prostate
[35] = system: UO-31 renal
[36] = system: HCT-15 colon
[37] = system: NCI-H23 lung
[38] = system: SK-MEL-28 melanoma
[39] = system: SF-268 CNS
[40] = system: M14 melanoma
[41] = system: CAKI-1 renal
[42] = system: SW-620 colon
[43] = system: OVCAR-5 ovarian
[44] = system: 786-0 renal
[45] = system: RPMI-8226 leukemia
[46] = system: U251 CNS
[47] = system: SK-MEL-5 melanoma
[48] = system: HOP-92 NSCLC
[49] = system: OVCAR-3 ovarian
[50] = system: EKVX NSCLC
[51] = system: MALME-3M melanoma
[52] = system: CCRF-CEM leukemia
[53] = system: HT29 colon
[54] = system: NCI-H226 lung
[55] = system: SK-OV-3 ovarian
[56] = system: LOX IMVI melanoma
[57] = system: OVCAR-8 ovarian

COc1cc(/C=C/C(=O)c2cc(OC)c(OC)c(OC)c2)ccc1OCc1ccccc1
GI50 [1]: 2.16 µM
TGI [1]: 5.75 µM
GI50 [2]: 2.8 µM
TGI [2]: 7.91 µM
GI50 [3]: 3.16 µM
TGI [3]: > 100 µM
GI50 [4]: 3.6 µM
TGI [4]: > 100 µM
GI50 [5]: 2.84 µM
TGI [5]: > 100 µM
GI50 [6]: 2.04 µM
TGI [6]: 4.28 µM
GI50 [7]: 2.18 µM
TGI [7]: 6.07 µM
GI50 [8]: 4.97 µM
TGI [8]: > 100 µM
GI50 [9]: 15.8 µM
TGI [9]: 58.9 µM
GI50 [10]: 3.06 µM
TGI [10]: > 100 µM
GI50 [11]: 3.49 µM
TGI [11]: 43.4 µM
GI50 [12]: 2.83 µM
TGI [12]: > 100 µM
GI50 [13]: 1.7 µM
TGI [13]: 3.62 µM
GI50 [14]: 1.45 µM
TGI [14]: 3.43 µM
GI50 [15]: 2.82 µM
TGI [15]: 9.4 µM
GI50 [16]: 2.59 µM
TGI [16]: > 100 µM
GI50 [17]: 3.34 µM
TGI [17]: 26.2 µM
GI50 [18]: 2.73 µM
TGI [18]: > 100 µM
GI50 [19]: 1.82 µM
TGI [19]: 4.51 µM
GI50 [20]: 2.14 µM
TGI [20]: 7.61 µM
GI50 [21]: 2.77 µM
TGI [21]: > 100 µM
GI50 [22]: 3.55 µM
TGI [22]: > 100 µM
GI50 [23]: 2.33 µM
TGI [23]: 6.16 µM
GI50 [24]: 3.2 µM
TGI [24]: > 100 µM
GI50 [25]: 1.83 µM
TGI [25]: 3.9 µM
GI50 [26]: 3.29 µM
TGI [26]: 68.9 µM
GI50 [27]: 4.06 µM
TGI [27]: > 100 µM
GI50 [28]: 2.96 µM
TGI [28]: > 100 µM
GI50 [29]: 3.7 µM
TGI [29]: 25.3 µM
GI50 [30]: 2.64 µM
TGI [30]: 8.69 µM
GI50 [31]: 2.53 µM
TGI [31]: > 100 µM
GI50 [32]: 1.94 µM
TGI [32]: 6.59 µM
GI50 [33]: 3.01 µM
TGI [33]: 73.4 µM
GI50 [34]: 3.16 µM
TGI [34]: > 100 µM
GI50 [35]: 2.2 µM
TGI [35]: > 100 µM
GI50 [36]: 1.75 µM
TGI [36]: 5.28 µM
GI50 [37]: 2.37 µM
TGI [37]: 7.23 µM
GI50 [38]: 3.79 µM
TGI [38]: 30.6 µM
GI50 [39]: 3.65 µM
TGI [39]: > 100 µM
GI50 [40]: 4.77 µM
TGI [40]: > 100 µM
GI50 [41]: 4.11 µM
TGI [41]: > 100 µM
GI50 [42]: 3.61 µM
TGI [42]: > 100 µM
GI50 [43]: 2.67 µM
TGI [43]: 13.7 µM
GI50 [44]: 4.71 µM
TGI [44]: > 100 µM
GI50 [45]: 1.9 µM
TGI [45]: > 100 µM
GI50 [46]: 2.36 µM
TGI [46]: 7.5 µM
GI50 [47]: 2.65 µM
TGI [47]: 11.1 µM
GI50 [48]: 1.88 µM
TGI [48]: 7.57 µM
GI50 [49]: 3.75 µM
TGI [49]: > 100 µM
GI50 [50]: 4.33 µM
TGI [50]: 51.6 µM
GI50 [51]: 5.08 µM
TGI [51]: > 100 µM
GI50 [52]: 3 µM
TGI [52]: > 100 µM
GI50 [53]: 2.66 µM
TGI [53]: > 100 µM
GI50 [54]: 4.16 µM
TGI [54]: > 100 µM
GI50 [55]: 4.2 µM
TGI [55]: > 100 µM
GI50 [56]: 1.69 µM
TGI [56]: 4.09 µM
GI50 [57]: 2.16 µM
TGI [57]: 5.8 µM
